As a reminder, the Ki is the dissociation constant of the complex between target and ligand, obtained from inhibition or displacement. What is called inhibition is the drop in the measured response relative to a control, in per cent.

For 2 molecules, Ki, inhibition and residual activity results are on record in ChEMBL document CHEMBL4507288 (2021).

Assay [1] has as its target 5-hydroxytryptamine receptor 1D (Homo sapiens, UniProt P28221). Kind of assay: GPCRScan assay: inhibition of 5-HT1D. Details: radioligand conc. used [nm] 1.0 – 2.0, parental cells HEKT.
The next assay addresses Histamine H2 receptor (Homo sapiens, UniProt P25021). As to conditions: Compound concentration 10.0 uM.
For assay [2], the target named is Calcium/calmodulin-dependent protein kinase type II subunit delta (Homo sapiens) (UniProt Q13557). The following applies: Compound concentration 1000.0 nM.
For assay [3], the system named is Mast/stem cell growth factor receptor Kit (Homo sapiens), P10721 [V559D,T670I]. The following applies: Compound concentration 1000.0 nM.
Assay [4] addresses Ribosomal protein S6 kinase alpha-4 (Homo sapiens) (UniProt O75676). As to conditions: Compound concentration 1000.0 nM.
For assay [5], the target named is Serine/threonine-protein kinase ICK (Homo sapiens) (UniProt Q9UPZ9). The following applies: Compound concentration 1000.0 nM.
Assay [6] deals with Hepatocyte growth factor receptor (Homo sapiens), P08581 [Y1235D]. As to conditions: Compound concentration 1000.0 nM.
For assay [7], the target named is Serine/threonine-protein kinase MRCK alpha (Homo sapiens) (UniProt Q5VT25). The following applies: Compound concentration 1000.0 nM.
The target of assay [8] is Serine/threonine-protein kinase SBK1 (Homo sapiens) (UniProt Q52WX2). As to conditions: Compound concentration 1000.0 nM.
Assay [9] concerns Tyrosine-protein kinase ABL1 (Homo sapiens), P00519 [E255K]. As to conditions: Compound concentration 1000.0 nM.
The target in assay [10] is Serine/threonine-protein kinase B-raf (Homo sapiens) (UniProt P15056). As to conditions: Compound concentration 1000.0 nM.
Sequence of Serine/threonine-protein kinase B-raf (Homo sapiens) (P15056 whole entry): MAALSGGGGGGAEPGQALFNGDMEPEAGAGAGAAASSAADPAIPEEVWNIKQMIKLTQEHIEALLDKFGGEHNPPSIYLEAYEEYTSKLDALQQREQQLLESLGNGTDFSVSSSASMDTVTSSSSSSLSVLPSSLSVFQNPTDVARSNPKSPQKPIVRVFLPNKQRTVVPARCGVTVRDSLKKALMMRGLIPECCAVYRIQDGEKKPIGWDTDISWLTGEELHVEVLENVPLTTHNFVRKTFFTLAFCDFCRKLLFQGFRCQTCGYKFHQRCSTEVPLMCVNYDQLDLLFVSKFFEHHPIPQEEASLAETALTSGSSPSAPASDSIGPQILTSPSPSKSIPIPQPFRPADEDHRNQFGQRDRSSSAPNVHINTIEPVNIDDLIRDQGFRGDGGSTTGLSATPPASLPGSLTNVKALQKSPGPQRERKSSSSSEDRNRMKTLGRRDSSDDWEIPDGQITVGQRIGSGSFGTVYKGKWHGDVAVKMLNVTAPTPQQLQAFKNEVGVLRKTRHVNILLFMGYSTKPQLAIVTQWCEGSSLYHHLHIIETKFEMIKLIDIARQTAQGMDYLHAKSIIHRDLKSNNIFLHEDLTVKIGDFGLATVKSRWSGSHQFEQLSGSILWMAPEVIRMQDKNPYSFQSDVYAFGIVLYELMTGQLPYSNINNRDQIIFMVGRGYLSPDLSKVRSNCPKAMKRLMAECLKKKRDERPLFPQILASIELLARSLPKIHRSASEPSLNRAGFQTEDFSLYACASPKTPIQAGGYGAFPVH
Assay [11] concerns the target Mitogen-activated protein kinase kinase kinase 5 (Homo sapiens) (UniProt Q99683). As to conditions: Compound concentration 1000.0 nM.
Assay [12] concerns the target Dual specificity tyrosine-phosphorylation-regulated kinase 1B (Homo sapiens) (UniProt Q9Y463). The following applies: Compound concentration 1000.0 nM.
Assay [13] has as its target 5'-AMP-activated protein kinase catalytic subunit alpha-1 (Homo sapiens) (UniProt Q13131). As to conditions: Compound concentration 1000.0 nM.
Assay [14] has as its target Phosphorylase b kinase gamma catalytic chain, skeletal muscle/heart isoform (Homo sapiens) (UniProt Q16816). As to conditions: Compound concentration 1000.0 nM.
The test system of assay [15] is Epidermal growth factor receptor (Homo sapiens), P00533 [L858R,T790M]. The following applies: Compound concentration 1000.0 nM.
The target in assay [16] is 5'-AMP-activated protein kinase catalytic subunit alpha-2 (Homo sapiens) (UniProt P54646). As to conditions: Compound concentration 1000.0 nM.
Assay [17] concerns the target SRSF protein kinase 2 (Homo sapiens) (UniProt P78362). The following applies: Compound concentration 1000.0 nM.
Assay [18] deals with Mitogen-activated protein kinase 11 (Homo sapiens) (UniProt Q15759). The following applies: Compound concentration 1000.0 nM.
In assay [19] the target is Dual serine/threonine and tyrosine protein kinase (Homo sapiens) (UniProt Q6XUX3). As to conditions: Compound concentration 1000.0 nM.
The target in assay [20] is Insulin receptor (Homo sapiens) (UniProt P06213). The following applies: Compound concentration 1000.0 nM.
Assay [21] deals with Casein kinase I isoform alpha-like (Homo sapiens) (UniProt Q8N752). The following applies: Compound concentration 1000.0 nM.
Sequence of Casein kinase I isoform alpha-like (Homo sapiens) (Q8N752 whole entry, canonical isoform): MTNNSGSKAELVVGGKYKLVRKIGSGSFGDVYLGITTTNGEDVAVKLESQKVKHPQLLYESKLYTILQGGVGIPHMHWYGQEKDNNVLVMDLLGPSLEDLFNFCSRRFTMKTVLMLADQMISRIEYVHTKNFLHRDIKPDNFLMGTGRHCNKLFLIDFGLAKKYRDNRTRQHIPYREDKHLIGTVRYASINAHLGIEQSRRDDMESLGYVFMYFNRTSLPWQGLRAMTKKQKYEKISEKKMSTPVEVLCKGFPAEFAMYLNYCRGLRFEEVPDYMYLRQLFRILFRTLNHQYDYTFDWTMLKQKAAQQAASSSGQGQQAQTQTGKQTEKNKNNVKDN
For assay [22], the target named is TGF-beta receptor type-1 (Homo sapiens) (UniProt P36897). The following applies: Compound concentration 1000.0 nM.
Assay [23] has as its target Tyrosine-protein kinase BTK (Homo sapiens) (UniProt Q06187). The following applies: Compound concentration 1000.0 nM.
In assay [24] the target is Mast/stem cell growth factor receptor Kit (Homo sapiens) (UniProt P10721). As to conditions: Compound concentration 1000.0 nM.
The target of assay [25] is SNF-related serine/threonine-protein kinase (Homo sapiens) (UniProt Q9NRH2). As to conditions: Compound concentration 1000.0 nM.
In assay [26] the target is Cyclin-G-associated kinase (Homo sapiens) (UniProt O14976). As to conditions: Compound concentration 1000.0 nM.
In assay [27] the target is TGF-beta receptor type-2 (Homo sapiens) (UniProt P37173). The following applies: Compound concentration 1000.0 nM.
The target of assay [28] is Vascular endothelial growth factor receptor 3 (Homo sapiens) (UniProt P35916). As to conditions: Compound concentration 1000.0 nM.
Sequence of Vascular endothelial growth factor receptor 3 (Homo sapiens) (P35916 whole entry): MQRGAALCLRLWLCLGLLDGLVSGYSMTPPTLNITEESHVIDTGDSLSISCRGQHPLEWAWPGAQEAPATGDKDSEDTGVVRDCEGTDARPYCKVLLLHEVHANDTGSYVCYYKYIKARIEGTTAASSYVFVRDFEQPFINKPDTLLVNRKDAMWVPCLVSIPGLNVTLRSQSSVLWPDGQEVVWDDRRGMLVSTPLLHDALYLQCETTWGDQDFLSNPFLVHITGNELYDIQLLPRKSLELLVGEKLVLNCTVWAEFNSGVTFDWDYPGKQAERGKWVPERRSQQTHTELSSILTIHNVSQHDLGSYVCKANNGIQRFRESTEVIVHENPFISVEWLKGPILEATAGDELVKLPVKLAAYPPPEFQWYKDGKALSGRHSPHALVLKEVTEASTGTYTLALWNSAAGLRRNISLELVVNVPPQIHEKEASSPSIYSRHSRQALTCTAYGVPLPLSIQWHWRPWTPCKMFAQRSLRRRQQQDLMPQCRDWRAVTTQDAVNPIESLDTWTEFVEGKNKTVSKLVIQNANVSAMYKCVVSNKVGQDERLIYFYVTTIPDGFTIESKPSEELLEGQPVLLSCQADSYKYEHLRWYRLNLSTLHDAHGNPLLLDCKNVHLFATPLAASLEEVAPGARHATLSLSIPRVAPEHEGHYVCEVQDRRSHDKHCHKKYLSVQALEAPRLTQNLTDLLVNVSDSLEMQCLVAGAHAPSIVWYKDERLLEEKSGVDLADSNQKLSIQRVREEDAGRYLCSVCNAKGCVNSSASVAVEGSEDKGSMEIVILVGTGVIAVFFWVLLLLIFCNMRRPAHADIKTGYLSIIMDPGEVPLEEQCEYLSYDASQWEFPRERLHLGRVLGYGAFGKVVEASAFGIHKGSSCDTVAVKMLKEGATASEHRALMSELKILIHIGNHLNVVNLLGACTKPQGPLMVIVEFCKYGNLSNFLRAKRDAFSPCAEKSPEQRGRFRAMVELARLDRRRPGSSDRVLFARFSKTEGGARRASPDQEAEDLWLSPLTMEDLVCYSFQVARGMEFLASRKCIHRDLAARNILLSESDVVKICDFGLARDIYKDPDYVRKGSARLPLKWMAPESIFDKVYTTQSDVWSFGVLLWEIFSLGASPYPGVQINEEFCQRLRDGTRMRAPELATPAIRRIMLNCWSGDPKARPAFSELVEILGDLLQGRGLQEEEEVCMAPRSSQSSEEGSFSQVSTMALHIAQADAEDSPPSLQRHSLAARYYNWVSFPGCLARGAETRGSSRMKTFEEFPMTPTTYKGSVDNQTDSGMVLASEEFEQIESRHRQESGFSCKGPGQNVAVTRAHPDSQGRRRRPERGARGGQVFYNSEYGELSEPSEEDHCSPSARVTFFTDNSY
The target of assay [29] is Dual specificity testis-specific protein kinase 1 (Homo sapiens) (UniProt Q15569). The following applies: Compound concentration 1000.0 nM.
Assay [30] deals with Casein kinase I isoform gamma-2 (Homo sapiens) (UniProt P78368). The following applies: Compound concentration 1000.0 nM.
Sequence of Casein kinase I isoform gamma-2 (Homo sapiens) (P78368 whole entry, looked up, canonical isoform): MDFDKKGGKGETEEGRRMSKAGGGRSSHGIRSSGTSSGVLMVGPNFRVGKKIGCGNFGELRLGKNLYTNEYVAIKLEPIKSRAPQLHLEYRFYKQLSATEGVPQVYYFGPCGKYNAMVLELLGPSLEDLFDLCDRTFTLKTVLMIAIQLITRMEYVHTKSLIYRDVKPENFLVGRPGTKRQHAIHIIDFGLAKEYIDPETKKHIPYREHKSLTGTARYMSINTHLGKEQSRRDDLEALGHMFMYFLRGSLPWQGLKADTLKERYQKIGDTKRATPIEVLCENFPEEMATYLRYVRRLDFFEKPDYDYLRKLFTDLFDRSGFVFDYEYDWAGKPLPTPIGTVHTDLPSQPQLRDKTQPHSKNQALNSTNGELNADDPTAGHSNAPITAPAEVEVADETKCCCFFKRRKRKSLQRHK
Assay [31] has as its target Serine/threonine-protein kinase 32B (Homo sapiens) (UniProt Q9NY57). The following applies: Compound concentration 1000.0 nM.
Assay [32] has as its target Serine/threonine-protein kinase 17B (Homo sapiens) (UniProt O94768). As to conditions: Compound concentration 1000.0 nM.
Assay [33] deals with Ribosomal protein S6 kinase alpha-3 (Homo sapiens) (UniProt P51812). As to conditions: Compound concentration 1000.0 nM.
The subject of assay [34] is Phosphatidylinositol 4,5-bisphosphate 3-kinase catalytic subunit alpha isoform (Homo sapiens), P42336 [E545A]. As to conditions: Compound concentration 1000.0 nM.
Assay [35] concerns the target Ephrin type-A receptor 2 (Homo sapiens) (UniProt P29317). The following applies: Compound concentration 1000.0 nM.
Assay [36] deals with Inhibitor of nuclear factor kappa-B kinase subunit epsilon (Homo sapiens) (UniProt Q14164). As to conditions: Compound concentration 1000.0 nM.
Sequence of Inhibitor of nuclear factor kappa-B kinase subunit epsilon (Homo sapiens) (Q14164 whole entry): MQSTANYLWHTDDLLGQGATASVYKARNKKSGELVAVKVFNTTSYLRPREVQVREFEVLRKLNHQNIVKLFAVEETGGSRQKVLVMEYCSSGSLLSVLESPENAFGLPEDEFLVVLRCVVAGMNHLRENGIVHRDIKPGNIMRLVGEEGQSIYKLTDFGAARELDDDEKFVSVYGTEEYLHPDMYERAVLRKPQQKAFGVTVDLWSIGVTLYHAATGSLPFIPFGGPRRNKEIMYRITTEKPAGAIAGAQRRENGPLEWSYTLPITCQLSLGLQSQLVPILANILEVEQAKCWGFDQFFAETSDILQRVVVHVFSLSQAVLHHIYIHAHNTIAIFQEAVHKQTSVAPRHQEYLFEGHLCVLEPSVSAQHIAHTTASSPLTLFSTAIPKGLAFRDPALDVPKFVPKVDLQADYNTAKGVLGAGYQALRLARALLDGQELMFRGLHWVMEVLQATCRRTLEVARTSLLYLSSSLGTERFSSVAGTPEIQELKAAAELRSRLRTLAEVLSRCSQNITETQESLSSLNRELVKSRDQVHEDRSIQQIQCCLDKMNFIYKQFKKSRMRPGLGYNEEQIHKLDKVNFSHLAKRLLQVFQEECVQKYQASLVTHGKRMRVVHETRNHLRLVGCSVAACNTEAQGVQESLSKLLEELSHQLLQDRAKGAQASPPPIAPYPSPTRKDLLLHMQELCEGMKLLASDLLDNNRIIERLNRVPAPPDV

Sequence of Dual specificity tyrosine-phosphorylation-regulated kinase 1B (Homo sapiens) (Q9Y463 whole entry, looked up): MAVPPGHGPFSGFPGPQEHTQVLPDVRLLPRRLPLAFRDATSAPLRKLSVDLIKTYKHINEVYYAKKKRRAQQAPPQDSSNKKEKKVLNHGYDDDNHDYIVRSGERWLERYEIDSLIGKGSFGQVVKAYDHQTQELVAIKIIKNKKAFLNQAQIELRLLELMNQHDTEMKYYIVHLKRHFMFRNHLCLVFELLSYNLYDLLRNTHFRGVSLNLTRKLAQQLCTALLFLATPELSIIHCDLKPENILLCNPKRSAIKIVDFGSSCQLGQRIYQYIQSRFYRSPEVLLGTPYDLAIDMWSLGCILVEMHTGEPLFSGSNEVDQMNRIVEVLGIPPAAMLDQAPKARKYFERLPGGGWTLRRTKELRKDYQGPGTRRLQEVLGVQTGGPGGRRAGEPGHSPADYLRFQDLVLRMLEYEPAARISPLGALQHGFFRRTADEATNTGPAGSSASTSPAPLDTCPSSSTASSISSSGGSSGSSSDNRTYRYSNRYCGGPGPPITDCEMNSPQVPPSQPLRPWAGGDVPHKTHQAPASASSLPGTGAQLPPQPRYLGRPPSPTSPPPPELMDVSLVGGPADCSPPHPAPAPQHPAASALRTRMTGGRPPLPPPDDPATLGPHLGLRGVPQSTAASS
Sequence of 5-hydroxytryptamine receptor 1D (P28221 whole entry): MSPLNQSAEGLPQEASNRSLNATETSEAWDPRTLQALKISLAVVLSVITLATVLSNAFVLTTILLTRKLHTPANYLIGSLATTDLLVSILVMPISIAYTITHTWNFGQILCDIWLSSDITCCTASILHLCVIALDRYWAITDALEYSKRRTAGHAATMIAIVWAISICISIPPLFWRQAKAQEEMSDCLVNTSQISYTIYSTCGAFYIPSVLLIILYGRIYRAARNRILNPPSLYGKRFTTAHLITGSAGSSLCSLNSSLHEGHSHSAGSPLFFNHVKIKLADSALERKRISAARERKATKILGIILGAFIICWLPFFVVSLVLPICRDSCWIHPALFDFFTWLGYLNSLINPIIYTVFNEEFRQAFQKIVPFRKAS
Sequence of Serine/threonine-protein kinase 32B (Homo sapiens) (Q9NY57 whole entry): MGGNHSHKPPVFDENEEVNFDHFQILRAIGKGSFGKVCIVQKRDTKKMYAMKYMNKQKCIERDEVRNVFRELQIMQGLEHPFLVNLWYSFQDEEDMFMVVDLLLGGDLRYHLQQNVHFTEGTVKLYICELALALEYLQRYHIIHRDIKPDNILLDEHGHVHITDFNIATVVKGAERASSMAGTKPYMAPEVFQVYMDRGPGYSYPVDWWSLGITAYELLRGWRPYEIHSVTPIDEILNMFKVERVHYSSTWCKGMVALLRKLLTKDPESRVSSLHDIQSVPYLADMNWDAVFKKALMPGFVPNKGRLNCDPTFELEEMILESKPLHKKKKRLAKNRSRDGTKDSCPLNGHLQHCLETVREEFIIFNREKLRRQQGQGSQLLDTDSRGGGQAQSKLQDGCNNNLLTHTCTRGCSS

For the molecule `CC(C)(C)OC(=O)N1CCCC1CNC1CCC(c2cc(F)ccc2F)(S(=O)(=O)c2ccc(Cl)cc2)CC1` (configuration not stated) [GSI-NC], the Ki in assay [1] is 234 nM. Further, the inhibition on Histamine H2 receptor was 53.1%.
Turning to `O=S(=O)(NC1CCC(c2cc(F)ccc2F)(S(=O)(=O)c2ccc(Cl)cc2)CC1)C(F)(F)F` (configuration not stated) [MRK-560], the residual activity was 100% in assay [2]; 100% in [3]; 100% in [4]; 85% in assay [5]; 97% in assay [6]; 91% in assay [7]. For the same molecule, the residual activity in [8] was 75%; in assay [9], 100%; in assay [10], 93%; in [11] it was 80%; in [12], 100%; in [13], 100%. Besides, the residual activity in [14] was 80%; in [15], 89%; in assay [16], 96%; in [17] it was 65%; in [18], 94%; in assay [19], 100%. The residual activity is 95% in [20]; 100% in [21]; 100% in assay [22]; 100% in assay [23]; 100% in assay [24]; 100% in assay [25]. Moreover, the residual activity was 89% in [26]; 100% in assay [27]; 100% in [28]; 100% in [29]; 99% in assay [30]; 100% in assay [31]. Further, the residual activity in [32] is 97%; in [33], 83%; in [34], 95%; in [35] it was 84%; in [36], 0%.
